Assay results reported in US20220220106A1, “QUINOLINE COMPOUNDS AND PHARMACEUTICAL COMPOSITIONS AND USES THEREOF” (Academy of Military Medical Sciences, priority 2019, published 2022).
Read-outs that look alike come from different tables or passages of the source.

Tests used:
[1] = test system: Enterovirus 71 (EV71) H strain; assay: In vitro anti-EV71 activity (antiviral activity in RD cells, CellTiter-Glo); type: cell-based; conditions: for IC50: EV71 H strain, RD cells, 4 days, CellTiter-Glo, read-out: IC50
Experimental: According to the mass and molecular weight of the compound to be tested, the compound to be tested was dissolved to 100 mM (mmol/L) with DMSO.
Detection of Antiviral Activity:
(1) First, the compound to be tested was diluted to 800 μM with cell maintenance solution (DMEM+2% FBS, Gibco, catalog numbers: 11995-065, 1600-044), and three-fold gradient dilution was performed to prepare 10 concentrations in total. The diluted compound was added to a 96-well plate with white wall and transparent bottom, 50 μl per well. To both the cell control group and the virus control group, an equal volume of the cell maintenance solution was added.
(2) EV71 virus (purchased from ATCC) was taken out from the −80° C. refrigerator and equilibrated to room temperature.
(3) The virus seed was diluted with a virus growth solution (DMEM+2% FBS, Gibco, catalog numbers: 11995-065, 1600-044) to 100TCID50, the diluted virus seed was added to the 96-well plate of (1), with […] per well. The same volume of the virus growth solution was added to the cell control group.
(4) RD cells (purchased from ATCC) were inoculated at a concentration of 1*10^5/mL into the 96-well plate of (1), with 100 μL per well, to reach a final volume of 200 μL per well. The final concentration of drug was 0.25 times the initial concentration.
(5) RD cells were cultured at 37° C. for 4 days for testing.
(6) The Buffer of CellTiter-Glo® luminescent cell viability assay reagent (Promega) was mixed with the substrate in the dark to prepare a working solution.
(§1) (7) The culture medium in the plate was discarded, the plate was dried by patting, 100 μL of the detection reagent was added to each well, and the 96-well plate was shaken on an orbital shaker for 4 minutes to induce cell lysis. After keeping in the dark and subjecting to signal stabilization for 15 minutes, the chemiluminescence unit was detected by using MD5 microplate reader (Molecular Devices), and the plate reading program was performed according to the CellTiter-Glo preset program.
The inhibition rate-concentration curve was fitted to S-curve by using origin8.0 software to calculate the IC50 value of the compound to be tested.
(§2) The formula for calculating the inhibition rates of drug at different dilution degrees was as follows: inhibition rate (%)=(average value of cell control group−value of experimental group)/(average value of cell control group−minimum value of experimental group)*100
(§3) The inhibition rate-concentration curve was fitted to S-curve by using origin8.0 software, and the IC50 value of the compound to be tested was calculated. The same method was used to calculate the TD50 value, and the selection index SI=TD50/IC50 was calculated according to the half maximal inhibitory concentration IC50 and the median toxic dose TD50.

RD cells = assay: Detection of cytotoxicity in RD cells (CellTiter-Glo); type: cell-based; conditions: 4 days, CellTiter-Glo, median toxic dose
Experimental: Detection of Cytotoxicity:
(1) The compound to be tested was diluted to a concentration of 400 μM with the cell maintenance solution, and 3-fold gradient dilution was carried out to obtain 10 concentrations in total.
(2) The diluted compound was added to a 96-well plate with white wall and transparent bottom, with 100 μL per well. An equal volume of the cell maintenance solution was added to the cell control group.
(3) RD cells were inoculated into the above 96-well plate at a concentration of 1*10^5/mL, with 100 μL per well, to reach a final volume of 200 μL per well, and the final concentration of drug was 0.5 times the pretreatment concentration.
(4) The RD cells were cultured at 37° C. for 4 days for testing.
(5) The Buffer of CellTiter-Glo® luminescent cell viability assay reagent was mixed with the substrate in the dark to prepare a working solution.
as §1, with “(6)” for “(7)”, “detected,” for “detected by using MD5 microplate reader (Molecular Devices),”
as §2, §3

Compound	IC50 ([1]; Enterovirus A, 96 h)	TD50 (RD cells)	melting point	in vitro anti-EV71 activity, in words ([1]; EV71, RD cells)	IC50 [1]
COc1cncc(-c2ccc3ncc4oc(=O)n(-c5cccc(C(F)(F)F)c5)c4c3c2)c1 [HTL-5-30, 8-[3-(5-methoxy)pyridyl]-1-[3-(trifluoromethyl)phenyl]oxazolo[5,4-c]quinolin-2(1H)-one]	> 200 µM	68.52 ± 0.42 µM	257 to 258 °C		
CC(=O)/C=C/c1cnc2ccc(-c3ccc(F)c(C)c3)cc2c1Nc1cccc(C(F)(F)F)c1 [HTL-3-32, (E)-6-(4-fluoro-3-methyl)phenyl-4-[3-(trifluoromethyl)phenyl]aminoquinoline-3-butenone]	> 200 µM	1.52 ± 0.87 µM	209 to 210 °C		
O=c1ccc2cnc3ccc(Nc4ccc(Cl)nc4)cc3c2n1-c1cccc(C(F)(F)F)c1 [HTL-6-21, 9-[3-(6-chloropyridyl)]imino-2-oxo-1-[3-(trifluoromethyl)phenyl]-1,2-dihydrobenzo[h][1,6]naphthyridine]	> 200 µM	20.75 ± 2.11 µM	137 to 138 °C		
CC(=O)/C=C/c1cnc2ccc(-c3ccc(C(N)=O)cc3)cc2c1Nc1cccc(C(F)(F)F)c1 [HTL-3-45, (E)-6-(4-carbamoyl)phenyl-4-[3-(trifluoromethyl)phenyl]aminoquinoline-3-butenone]	> 200 µM	2.42 ± 0.06 µM	211 to 214 °C		
CC(=O)/C=C/c1cnc2ccc(-c3cccs3)cc2c1Nc1cccc(C(F)(F)F)c1 [HTL-3-24, (E)-6-(2-thienyl)-4-[3-(trifluoromethyl)phenyl]aminoquinoline-3-butenone]	> 200 µM	1.35 ± 1.16 µM	181 to 185 °C		
CC(=O)/C=C/c1cnc2ccc(-c3ccc(C(C)C)cc3)cc2c1Nc1cccc(C(F)(F)F)c1 [HTL-3-39, (E)-6-(4-isopropyl)phenyl-4-[3-(trifluoromethyl)phenyl]aminoquinoline-3-butenone]	> 200 µM	1.75 ± 0.73 µM	143 to 144 °C		
CCOC(=O)/C=C/c1ccc2ncc3oc(=O)n(-c4cccc(C(F)(F)F)c4)c3c2c1 [WSX-1-13, (E)-8-(2-ethoxycarbonyl-vinyl)-1-[3-(trifluoromethyl)phenyl]oxazolo[5,4-c]quinolin-2(1H)-one]	100 ± 2.34 µM	73.88 ± 3.52 µM	221 to 224 °C	weak inhibitory activity	
O=c1oc2cnc3ccc(-c4ccoc4)cc3c2n1-c1cccc(C(F)(F)F)c1 [HTL-5-25, 8-(3-furyl)-1-[3-(trifluoromethyl)phenyl]oxazolo[5,4-c]quinolin-2(1H)-one]	> 200 µM	>200 µM	276 to 277 °C		
CC(=O)/C=C/c1cnc2ccc(-c3ccc(F)cc3)cc2c1Nc1cccc(C(F)(F)F)c1 [HTL-3-12, (E)-6-(4-fluoro)phenyl-4-[3-(trifluoromethyl)phenyl]aminoquinoline-3-butenone]	> 200 µM	>200 µM	167 to 169 °C		
N#Cc1ccc(Nc2ccc3ncc4ccc(=O)n(-c5cccc(C(F)(F)F)c5)c4c3c2)cc1 [HTL-6-22, 9-(4-cyanophenyl)imino-2-oxo-1-[3-(trifluoromethyl)phenyl]-1,2-dihydrobenzo[h][1,6]naphthyridine]	> 200 µM	6.95 ± 0.86 µM	259 to 260 °C		
CC(=O)/C=C/c1cnc2ccc(-c3ccc(F)cc3F)cc2c1Nc1cccc(C(F)(F)F)c1 [HTL-3-33, (E)-6-(2,4-difluoro)phenyl-4-[3-(trifluoromethyl)phenyl]aminoquinoline-3-butenone]	> 200 µM	0.72 ± 0.66 µM	162 to 164 °C		
CC(=O)/C=C/c1cnc2ccc(-c3ccncc3)cc2c1Nc1cccc(C(F)(F)F)c1 [HTL-3-04, (E)-6-(4-pyridyl)-4-[3-(trifluoromethyl)phenyl]aminoquinoline-3-butenone]	> 200 µM	>200 µM	192 to 195 °C		
Cc1cc(Nc2ccc3ncc4ccc(=O)n(-c5cccc(C(F)(F)F)c5)c4c3c2)ccc1F [HTL-6-24, 9-[(4-fluoro-3-methyl)phenyl]imino-2-oxo-1-[3-(trifluoromethyl)phenyl]-1,2-dihydrobenzo[h][1,6]naphthyridine]	> 200 µM	7.2 ± 0.33 µM	210 to 211 °C		
COc1cncc(-c2ccc3ncc(/C=C/C(C)=O)c(Nc4cccc(C(F)(F)F)c4)c3c2)c1 [HTL-3-07, (E)-6-[3-(5-methoxy)pyridyl]-4-[3-(trifluoromethyl)phenyl]aminoquinoline-3-butenone]	> 200 µM	>200 µM	164 to 167 °C		
COc1ccc(Nc2ccc3ncc4ccc(=O)n(-c5cccc(C(F)(F)F)c5)c4c3c2)cc1 [HTL-6-26, 9-(4-methoxyphenyl)imino-2-oxo-1-[3-(trifluoromethyl)phenyl]-1,2-dihydrobenzo[h][1,6]naphthyridine]	> 200 µM	>200 µM	138 to 140 °C		
O=c1oc2cnc3ccc(-c4ccc(Cl)cc4)cc3c2n1-c1cccc(C(F)(F)F)c1 [HTL-5-33, 8-(4-chloro)phenyl-1-[3-(trifluoromethyl)phenyl]oxazolo[5,4-c]quinolin-2(1H)-one]	> 200 µM	>200 µM	283 to 286 °C		
CC(=O)/C=C/c1cnc2ccc(-c3ccoc3)cc2c1Nc1cccc(C(F)(F)F)c1 [HTL-3-22, (E)-6-(3-furyl)-4-[3-(trifluoromethyl)phenyl]aminoquinoline-3-butenone]	> 200 µM	1.55 ± 1.03 µM	151 to 154 °C		
CC(=O)/C=C/c1cnc2ccc(-c3ccc(F)nc3)cc2c1Nc1cccc(C(F)(F)F)c1 [HTL-3-43, (E)-6-[3-(6-fluoro)pyridyl]-4-[3-(trifluoromethyl)phenyl]aminoquinoline-3-butenone]	> 200 µM	2.23 ± 0.08 µM	133 to 134 °C		
CC(C)(C)c1ccc(Nc2ccc3ncc4ccc(=O)n(-c5cccc(C(F)(F)F)c5)c4c3c2)cc1 [HTL-6-18, 9-(4-tert-butylphenyl)imino-2-oxo-1-[3-(trifluoromethyl)phenyl]-1,2-dihydrobenzo[h][1,6]naphthyridine]	> 200 µM	7.04 ± 0.68 µM	141 to 142 °C		
C#CCNc1ccc(-c2ccc3ncc4ccc(=O)n(-c5cccc(C(F)(F)F)c5)c4c3c2)cn1 [HTL-7-29, 9-[3-(6-propargylamino)pyridyl]-2-oxo-1-[3-(trifluoromethyl)phenyl]-1,2-dihydrobenzo[h][1,6]naphthyridine]	0.09 µM	0.29 ± 0.03 µM	139 to 141 °C		
(E)-6-[3-(N-6-benzyloxyamido)pyridyl]-4-[3-(trifluoromethyl)phenyl]aminoquinoline-3-butenone [HTL-7-22]		9.4 ± 8.0 µM			> 200 µM
O=c1ccc2cnc3ccc(Nc4ccc(C(F)(F)F)cc4)cc3c2n1-c1cccc(C(F)(F)F)c1 [HTL-6-16, 9-[4-(trifluoromethyl)phenyl]imino-2-oxo-1-[3-(trifluoromethyl)phenyl]-1,2-dihydrobenzo[h][1,6]naphthyridine]	> 200 µM	7.06 ± 0.23 µM			
